Paper PMC11956017, “Design of Benzyl-triazolopyrimidine-Based NADPH Oxidase Inhibitors Leads to the Discovery of a Potent Dual Covalent NOX2/MAOB Inhibitor” (Journal of Medicinal Chemistry, 2025)
Entries after “also recorded” stand apart in the source; their conditions may differ. Marks after values point to notes of the source that are not given here. Blank lines part the entries; values can stand above or below the molecule they belong to.

Columns and labels:
[1] = tested on: monocytic U937; parameters: method as in PMID 37884805; settings: cited from earlier work
[2] = tested on: BV2 cells; assay: ROS detection with CellROX Deep Red in BV2 cells; format: cell-based, murine; settings: 10 μM, LPS/IFN-γ stimulation, 48 h
Protocol: BV2 murine microglial cells were cultured in DMEM supplemented with 10% heat-inactivated FBS, 100 IU/mL penicillin G, […] streptomycin, and […] amphotericin B and grown at 37 °C in 5% CO2 and a humidified atmosphere. […] After 30 min, LPS 100 ng/mL and IFN-γ 20 ng/mL were added to the medium for an additional 48 h. After treatment, BV2 cells were incubated with a CellROX Deep Red reagent (cat. no. C10422) at 5 μM and incubated for 30 min at 37 °C as indicated by the manufacturer protocol. ROS levels were measured by a spectrofluorometer, taking as 100% the median fluorescence intensity of cells treated with the vehicle.

[3] = tested on: BV2 cells; assay: MTT viability assay in BV2 cells; format: cell-based, murine; settings: 10 μM, LPS/IFN-γ stimulation, 48 h
[4] = tested on: Purified MAOA; settings: read-out: IC50 Purified MAOA; cited from earlier work
[5] = tested on: Purified MAOB; settings: read-out: IC50 Purified MAOB; cited from earlier work
[6] = target: T1, human MAOA (Homo sapiens, UniProt P21397); assay: Purified MAOA, Amplex Red/horseradish peroxidase coupled assay; format: biochemical; settings: 70 nM MAOA, 1 mM kynuramine
T1 construct: made in house; host or cells: Pichia pastoris
T1 sequence (P21397 1-527): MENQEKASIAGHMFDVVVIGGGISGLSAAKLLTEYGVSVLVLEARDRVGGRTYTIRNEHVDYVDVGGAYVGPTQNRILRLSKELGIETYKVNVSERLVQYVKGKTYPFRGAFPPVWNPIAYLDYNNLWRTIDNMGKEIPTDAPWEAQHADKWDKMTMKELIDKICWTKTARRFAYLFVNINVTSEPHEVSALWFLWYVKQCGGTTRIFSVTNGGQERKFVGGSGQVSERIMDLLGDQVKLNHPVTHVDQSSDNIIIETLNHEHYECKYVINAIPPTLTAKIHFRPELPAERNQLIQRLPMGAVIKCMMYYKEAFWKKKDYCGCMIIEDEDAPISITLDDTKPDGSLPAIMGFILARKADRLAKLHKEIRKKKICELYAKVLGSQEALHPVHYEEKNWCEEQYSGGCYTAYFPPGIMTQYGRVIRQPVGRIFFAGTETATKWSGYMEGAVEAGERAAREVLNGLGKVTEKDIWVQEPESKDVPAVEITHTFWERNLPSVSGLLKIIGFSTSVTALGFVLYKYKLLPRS
Protocol: (§1) IC50 values on human MAOA and human MAOB were determined using the Amplex Red/horseradish peroxidase coupled assay. […] Measurements were performed using a ClarioStar plate reader (excitation 572 nm and emission 583 nm) (BMG Labtech). IC50 values were obtained by fitting the percentage of inhibition versus log(inhibitor concentration) using GraphPad software 7.0. The covalent modification of the flavin upon the reaction with the propargylamine-containing inhibitors was monitored spectrophotometrically using a diode array UV/visible spectrophotometer (Agilent Technologies). […] The cofactor covalent modification was monitored over time following the shift of the enzyme-bound flavin (peaks at 370 and 456 nm) to 410 nm (ε410 = 23,500 M^–1 cm^–1) (Figure S10).

[7] = target: T2, human MAOB (Homo sapiens, UniProt P27338); assay: Purified MAOB, Amplex Red/horseradish peroxidase coupled assay; format: biochemical; settings: 10 nM MAOB, 1 mM benzylamine
T2 construct: made in house; host or cells: Pichia pastoris
T2 sequence (P27338 1-520): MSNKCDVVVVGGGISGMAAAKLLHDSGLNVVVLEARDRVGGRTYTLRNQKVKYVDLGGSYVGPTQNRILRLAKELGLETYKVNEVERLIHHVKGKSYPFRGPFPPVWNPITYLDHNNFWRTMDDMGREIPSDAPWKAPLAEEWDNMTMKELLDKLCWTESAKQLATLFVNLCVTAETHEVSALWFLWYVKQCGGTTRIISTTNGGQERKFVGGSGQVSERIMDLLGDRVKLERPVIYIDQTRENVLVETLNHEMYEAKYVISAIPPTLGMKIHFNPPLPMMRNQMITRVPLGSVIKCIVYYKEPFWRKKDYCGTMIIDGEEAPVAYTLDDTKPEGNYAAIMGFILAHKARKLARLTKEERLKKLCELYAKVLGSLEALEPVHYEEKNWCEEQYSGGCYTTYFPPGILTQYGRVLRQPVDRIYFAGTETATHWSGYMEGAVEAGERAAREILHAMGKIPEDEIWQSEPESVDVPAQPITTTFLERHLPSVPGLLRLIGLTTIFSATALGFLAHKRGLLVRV
Protocol: as §1

[8] = tested on: BV2 cells; assay: qRT-PCR of iNOS, IL-1β and IL-6 transcripts in BV2 cells; format: cell-based, murine; settings: cells pre-stimulated with LPS/IFN-γ for 24h, then 10 µM compound for 24 h
Protocol: BV2 murine microglial cells were cultured in DMEM supplemented with 10% heat-inactivated FBS, 100 IU/mL penicillin G, […] streptomycin, and […] amphotericin B and grown at 37 °C in 5% CO2 and a humidified atmosphere. […]
BV2 cells were lysed in a Trizol reagent for isolation of RNA. A reverse transcription reaction was performed in a thermocycler (MJMini personal thermal cycler; Biorad) using an IScript Reverse Transcription Supermix (Biorad) according to the manufacturer’s protocol, under the following conditions: incubation at 25 ° C for 5 min, reverse transcription at 42 ° C for 30 min, and inactivation at 85 ° C for 5 min. Real-time PCR (rtPCR) was carried out in an I-Cycler IQ Multicolor rtPCR detection system (Biorad) using a SsoFast EvaGreen Supermix (Biorad) according to the manufacturer’s instructions. The PCR protocol consisted of 40 cycles of denaturation at 95 ° C for 30 s and annealing/extension at 60 ° C for 30 s. For quantification analysis, the comparative threshold cycle (Ct) method was used. The Ct values from each gene were normalized to the Ct value of GAPDH in the same RNA samples. Relative quantification was performed using the 2^–ΔΔCt method (Schmittgen and Livak, 2008) and expressed as a fold change in arbitrary values. Primers used are as follows: • iNOS fw: […]; rev: […]. • IL-1β fw: […]; rev: […]. • IL-6 fw: […]; rev: […].

[9] = tested on: dehydrogenase domain of csNOX5; assay: NADPH depletion assay on csNOX5 dehydrogenase domain; format: biochemical, Cylindrospermum stagnale; settings: 100 μM inhibitor; 1 μM purified protein, 250 μM NADPH
[10] = tested on: NOX1; settings: cited from earlier work
[11] = tested on: NOX4; settings: cited from earlier work
[12] = tested on: NOX5; settings: cited from earlier work
[13] = target: NOX2 (Homo sapiens, UniProt P04839); parameters: NOX2 was expressed as native protein in X-CGD PLB-985 cells transduced with the RD114 pseudotyped MFGS-NOX2 vector; expressed in transfected cells; host or cells: X-CGD PLB-985 cells transduced with MFGS-NOX2; isolated membranes; Cytosolic proteins made in E. coli; settings: cited from earlier work

Compound: O=C1c2ccccc2-c2cc(N3CCC4(CC3)OCCO4)nc3cccc1c23 [Compound M41]
viability of monocytic U937 and other myeloid cancer lines [1]: reduced the viability

Compound: C#CCN[C@@H]1CCc2ccccc21 [Rasagiline, reference compound]
ROS levels in BV2 cells [2]: decrease the ROS levels
BV2 cell viability [3]: negligible effects on cells viability
IC50 [4]: 0.7 µM
IC50 [5]: 0.014 µM

IC50 [6]: > 100 µM
IC50 Purified MAOA [6]: ineffective; also recorded: Not detected
IC50 [7]: > 100 µM
IC50 Purified MAOB [7]: ineffective; also recorded: Not detected
Compound: c1ccc(Cn2nnc3c(Sc4nc5ccccc5o4)ncnc32)cc1 [VAS2870, 3-benzyl-7-(2-benzoxazolyl)thio-1,2,3-triazolo[4,5-d]pyrimidine, reference compound]
ROS levels in BV2 cells [2]: decrease the ROS levels
effects on iNOS, IL-1β and IL-6 mRNA without inhibitor pretreatment [8]: negligible

% INHIBITION csNOX5 DEHYDROGENASE DOMAIN [9]: 23.4 ± 4.8^b %
Compound: Clc1ncnc2c1nnn2Cc1ccccc1 [Compound 3, 3-Benzyl-7-chloro-3H-[1,2,3]triazolo[4,5-d]pyrimidine]

Compound: c1ccc(-c2cc(NC3CCNCC3)nc3ccccc23)cc1 [MC4876]
viability of monocytic U937 and other myeloid cancer lines [1]: reduced the viability

Compound: c1ccc(Cn2nnc3c(Sc4ncco4)ncnc32)cc1 [VAS3947]
IC50 [10]: 86.8 µM
IC50 [11]: 30.5 µM
IC50 [12]: 39.2 µM
IC50 [13]: 5.6 µM
